Results reported in patent US5733879A, “Peptides and proteins, process for their preparation and their use as cholesterol acceptors” (N.V. Innogenetics, S.A., priority 1992, dated 1998).
Where no end group is shown, it is not given here.

Assay: Turbidity decrease at 325 nm on complex formation with DMPC vesicles (lipid binding)
Conditions: from turbidity decrease with DMPC vesicles, 15-25° C.
Experimental: FIG. 1 represents the turbidity decrease (on the y-axis, expressed as E/Eo, with E being the turbidity measured at different temperature points and Eo being the turbidity measured at 15° C.) at 325 nm upon the formation of complexes with DMPC vesicles as a function of the temperature (°C.), (x-axis) and on which:
The formation of small discoidal particles between DMPC vesicles and the peptides was monitored by measuring the turbidity decrease at 325 nm as a function of temperature. […] The turbidity decrease initiated by the peptide-lipid association started already at 17° C., below the DMPC transition temperature and stabilized around 23° C. The turbidity decrease enables to determine the binding affinity of lipids to the peptides of the invention. M 1 has a strong lipid binding capacity while 18A and M4 have quite similar lipid binding affinity. The lipid binding of M3 is low compared with the other peptides.

Row | lipid binding capacity / affinity | Sequence
1 | quite similar | EWLEAFYKKVLEKLKELF [M4]
2 | low | EWLKAEYEKVEEKLKELF [M3]
3 | strong | EWLKAFYKKVLEKLKELF [M1]
